Reference: patent US8153397B2 (priority 1993, dated 2012)

biological target: rBoNT/A LC (Clostridium botulinum, UniProt P0DPI0); type: biochemical
Sequence (P0DPI0 3-448, added parts left off): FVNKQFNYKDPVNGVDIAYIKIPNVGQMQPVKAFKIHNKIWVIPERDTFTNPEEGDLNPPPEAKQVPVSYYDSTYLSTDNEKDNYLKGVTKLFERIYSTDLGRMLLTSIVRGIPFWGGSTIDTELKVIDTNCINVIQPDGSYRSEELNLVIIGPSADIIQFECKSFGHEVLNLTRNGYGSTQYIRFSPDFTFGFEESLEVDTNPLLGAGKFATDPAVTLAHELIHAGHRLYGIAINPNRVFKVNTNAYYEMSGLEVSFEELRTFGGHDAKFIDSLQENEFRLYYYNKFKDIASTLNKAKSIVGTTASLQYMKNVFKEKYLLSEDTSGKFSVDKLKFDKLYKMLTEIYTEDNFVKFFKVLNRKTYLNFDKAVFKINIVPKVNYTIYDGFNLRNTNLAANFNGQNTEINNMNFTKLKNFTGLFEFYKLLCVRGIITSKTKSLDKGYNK

Row | Compound | % Activity | effect on activity of the rBoNT/A LC | stimulation of activity
1 | [Cl-].[Cl-].[Mg+2] [MgCl2] | 90% |  | 
2 | N[C@@H](CCC(=O)N[C@@H](CSN=O)C(=O)NCC(=O)O)C(=O)O [S-Nitrosoglutathione] | 55% |  | 
3 | NC(=O)CI [Iodoacetamide] | 80% |  | 
4 | O[C@H](CS)[C@H](O)CS [Dithiothreitol] | 45% | significantly inhibited | 
5 | CoCl2 | 90% |  | 
6 | OCCS [β-Mercaptoethanol] | 120% | stimulated the activity | 
7 | O=S(=O)([O-])[O-].[Ni+2] [NiSO4] | 55% | inhibited the LC reaction to various extents | 
8 | N[C@@H](CCC(=O)N[C@@H](CS)C(=O)NCC(=O)O)C(=O)O [Glutathione, reduced] | 75% | inhibited the activity to various extents | 
9 | N[C@@H](CS)C(=O)O [L-Cysteine] | 20% | inhibited the activity to various extents | 
10 | O=S(=O)([O-])[O-].[Cu+2] [CuSO4] | 95% |  | 
11 | O=C(O)CN(CCN(CC(=O)O)CC(=O)O)CC(=O)O [EDTA] | 00% | completely inhibited | 
12 | [Ca+2].[Cl-].[Cl-] [CaCl2] | 75% |  | 
13 | [Cl][Mn][Cl] [MnCl2] | 40% | inhibited the LC reaction to various extents | 
14 | [Cl-].[Cl-].[Zn+2] [ZnCl2] |  |  | 5%-10%
15 | [Cl][Fe][Cl] [FeCl2] | 35% |  | 
16 | O[C@H](CS)[C@@H](O)CS [Dithioerythreitol] | 60% | inhibited the activity to various extents | 
17 | [Cl][Hg][Cl] [Mercuric chloride] | 00% | completely abolished | 
18 | O=C(O)c1cc[c]([Hg][Cl])cc1 [p-C1-Mercuribenzoate] | 00% | completely abolished | 
